The source of these data is patent publication US20140086839A1, “QUINOLONE ANALOGS FOR TREATING AUTOIMMUNE DISEASES” (Tel HaShomer Medical Research Infrastructure and Services …, priority 2011, published 2014).

The nature of data set [1]: XTT cell viability of PHA-stimulated human PBMCs from healthy subjects. It is filed as cell-based. The conditions noted are these: PHA 20 μg/ml, read-out: maximal effect on viability of human PBMCs (decrease). As to the method: FIG. 6 is a histogram depicting the effect of CX-5461 on viability of human PBMCs. Human PBMCs were plated in DMEM+10% FCS+P/S+Q and 20 μg/ml PHA (400,000 cell/well) in the presence of increased concentrations of CX-5461 (50-500 nM) for 72 hours. Cells cultured with PHA alone served as controls. After incubation cell viability was determined by XTT assay;
PBMCs ([…]) from normal, healthy, subjects were plated in the presence of PHA (20 μg/ml) with elevated concentrations of CX-5461 (50-500 nM) for 72 hours. Cells plated in absence of CX-5461 served as controls.

A short description of data set [2]: XTT cell viability assay of PHA-stimulated mouse splenocytes. It is filed as cell-based. As to the method: FIG. 5 is a histogram depicting the effect of CX-5461 on viability of mouse splenocytes. Mouse splenocytes were plated in DMEM+10% FCS+P/S+Q and 10 μg/ml PHA (250,000 cell/well) in the presence of increased concentrations of CX-5461 (50-4000 nM) for 72 hours. Cells cultured with PHA alone served as controls. Following incubation cell viability was determined by XTT assay;
Cells viability was assessed by the 2,3 bis[2-Methoxy-4-nitro-5-sulfophenyl]-2H-tetrazolium-5-carboxanilide (XTT) as say (Biological Industries, Kibbutz Beit Hemeek, Israel) which measures the reduction of a tetrazolium component (XTT) into soluble formazan product by the mitochondria of viable cells. The intensity of the dye obtained is proportional to the number of metabolic active cells. Mouse splenocytes were plated in presence of PHA ([…]) and elevated concentrations of CX-5461 (50-4000 nM) for 72 hours. Cells plated in absence of CX-5461 served as controls. Following incubation, cell viability was measured by 2,3-bis-(2-methoxy-4-nitro-5-sulfophenyl)-2H-tetrazolium-5-carboxanilide (XTT) assay according to manufacturer's instructions (Biological Industries, Kibbutz Beit Hemeek, Israel). The intensity of the dye obtained is proportional to the number of metabolic active cells.

The test system of data set [3] is MOG-induced EAE. Kind of data set: MOG-induced EAE, CX-5461 treatment initiated at clinical onset. The class given is in vivo. As to the method:
(§1) EAE was induced in female C57BL/6 mice, 8 weeks of age, by subcutaneous immunization to the flank of emulsion (1:1 ratio volume/volume) containing […] peptide dissolved in phosphate-buffered saline (PBS) (at a concentration 2 mg/ml) and 0.5 mg Mycobacterium Tuberculosis H37Ra (Difco, Detroit, Mich.) in […] incomplete Freund's adjuvant (Sigma, St. Louis, Mo.). Pertussis toxin 200 ng/mouse (dissolved in […] PBS (List Biological Laboratories, Campbell, Calif.) was injected intra-peritoneal on the day of immunization and again two days later. Mice were monitored daily for clinical signs of EAE, scored as follows: 1-flaccid tail; 1.5—hind limb weakness; 2—paralyzed hind limbs and poor righting ability; 2.5—forelimb weakness, paralyzed hind limbs, paralyzed tail; 3—four limbs paralysis, inability to right; 4—quadriplegia; 5.0—moribund or death of the animal after preceding clinical disease. Animal reaching a score of 4 were scarified using CO2. Mice were kept in an SPF (Specific Pathogen Free) environment. Animal breeding and maintenance and all experimental protocols were performed in accordance with the Israeli Council for Animal Care guidelines and all experiments were approved by Sheba IRB Animal Care Ethical Committee.
EAE was induced in mice as described in Example 6, hereinabove.
EAE was induced in female C57/6J female mice as described above. Treatment with CX-5461 was administered orally in 0.2 ml of vehicle with the following concentrations: 12.5 mg/kg/d (n=11 mice) and 25.0 mg/kg/d (n=8 mice). Vehicle treated mice served as controls (n=9 mice). CX-5461 treatment was initiated from the day of disease onset (score 0.5 or 1.0) for the following 14 days. The day of disease onset was evaluated for each animal daily.

In data set [4] the test system is MOG-induced EAE. Kind of data set: MOG-induced EAE, CX-5461 prophylactic treatment initiated at induction phase. The class given is in vivo. The conditions noted are these: for Cumulative disease score / Disease onset / Maximal clinical score: 9 days. Here is the method: as §1
EAE was induced in female C57Bl/6J female mice (8 weeks old) as described above. Treatment with CX-5461 was initiated on the day of induction and continued till the clinical signs of EAE appeared in the control animal group (In 2 out of the 7 mice clinical signs of EAE appeared). CX-5461 was administered orally to each animal; the following doses of CX-5461 in 0.2 ml of vehicle were used: 12.5 mg/kg (n=6 mice), 25 mg/kg (n=6 mice) and 50 mg/kg (n=7 mice) in 0.2 ml of vehicle. Vehicle treated mice served as controls (n=7 mice). Treatment continued for 9 days post induction, until the first sign of EAE (grade 1) appeared in the vehicle animal group (in 2 out of 7 mice). Mice were monitored daily for clinical signs of EAE up to 42 days post induction.

Data set [5] can be described thus: XTT cell viability assay of neuronal progenitor cells. It is filed as cell-based, mice. The conditions noted are these: read-out: decrease in NPC cell viability. As to the method:
(§2) FIG. 8 is a histogram depicting the effects of CX-5461 on viability of neuronal progenitor cells (NPCs). Mouse NPCs were plated in neurospheres medium containing basic FGF and EGF at 20 ng/ml each (26,000 cell/well) in the presence of increased concentrations of CX-5461 (20-500 nM) for 72 hours. Cells cultured without CX-5461 served as controls. Following incubation cell viability was determined by XTT assay;
(§3) NPCs derived from the subventricular zone of the lateral ventricle of adult mice were allowed to proliferate in the presence of increased concentrations of CX-5461 (20 nM to 500 nM) for 72 hours, and cell viability was tested using XTT assay.

The subject of data set [6] is neural progenitor cells (NPCs). Described as above. The class given is cell-based, mice. The conditions noted are these: 20 nM, 72 hours. As to the method: as §2, §3
[7] abbreviates: 12.5 mg/kg/day oral from disease onset, 14 days.
[8] abbreviates: 25 mg/kg/day oral from disease onset.
The mark [9] stands for this setting: 12.5 mg/kg/day oral from day of EAE induction.
Setting [10] is: 25.0 mg/kg/day oral from day of EAE induction.

Molecules are shown by their SMILES.

Regarding `Cc1cnc(CNC(=O)c2c(=O)c3ccc(N4CCCN(C)CC4)nc3n3c2sc2ccccc23)cn1` [CX-5461, 2-(4-methyl-1,4-diazepan-1-yl)-N-((5-methylpyrazin-2-yl)methyl)-5-oxo-5H-benzo[4,5]thiazolo[3,2-a][1,8]naphthyridine-6-carboxamide], the cytotoxicity at 72 h, 50 nM in data set [1] amounted to 35%; in data set [2] (50 nM, read-out: decrease in cell viability of splenocyte cells), 27%; in data set [5] (mouse, 50 nM), 30%. The cytotoxicity at 72 h in data set [2] (500 nM and higher concentrations, read-out: decrease in cell viability of splenocyte cells (maximal)) was 97 to 100%; in data set [5] (mouse, 100, 250 and 500 nM) it was roughly 50%. Besides, the Cumulative disease score in the data set with MOG-induced EAE [3] (setting [7]) was 18.59 ± 4.26; with MOG-induced EAE [4] (setting [9]), 16.25 ± 3.94; in the data set with MOG-induced EAE [4] (setting [10]), 14.1 ± 3.5. Besides, the “Maximal EAE score” value in the data set on MOG-induced EAE [3] (setting [7]) stood at 2 ± 0.47. Besides, the survival entry in the data set on MOG-induced EAE [3] (setting [7]) is given as “all the animals survived”. Further, the EAE score in the data set with MOG-induced EAE [3] (setting [8]) is 0.88±0.18. Further, the toxic effects result in the data set on MOG-induced EAE [3] (setting [8]) is “change in their fur color and brightness and loss of weight”. Also, the “time to death (toxic effects)” value in the data set with MOG-induced EAE [3] (25 mg/kg/day oral from disease onset, all mice died) was 10.1 ± 0.5 days. Also, the results for the Disease onset with MOG-induced EAE [4] (setting [9]) and in the data set with MOG-induced EAE [4] (setting [10]) were 20.83 ± 1.36 days p.i and 23.1 ± 1.2 days p.i, respectively. Moreover, the Maximal clinical score amounted to 2.83 ± 0.49 in the data set on MOG-induced EAE [4] (setting [9]) and 3.3 ± 1.0 in the data set on MOG-induced EAE [4] (setting [10]). Also, in the data set on MOG-induced EAE [4] (50 mg/kg/day oral, days of treatment post-induction, mean), the “time to death (toxicity)” value came out at 7.6 ± 0.5 days. The toxic signs result with MOG-induced EAE [4] (50 mg/kg/day oral, since day 5 of treatment) was “change in the color and brightness of their fur, loss of weight and change in behavior”. Moreover, the “delay of EAE onset versus vehicle-control group” value in the data set on MOG-induced EAE [4] (all CX-5461 treated groups, not dependent on concentration) was determined as 10 days. Also, the “effect on NPCs viability” value in data set [6] is given as “no effect”.
